Reference: PubChem BioAssay AID248 (DTP/NCI, 2004)
Values joined by “and” are separate entries in the source; they are usually repeats but may differ in a detail not shown here. Equal values may be shown once. Inconclusive results and toxic doses are left out. Cut-off read from the data, not from the text of the source: active = T/C of 150% or more; inactive = T/C below 125%.

System: L1210 leukemia ip in BDF1 mice, survival T/C
Assay: NCI In Vivo Anticancer Drug Screen. Data for tumor model L1210 Leukemia (intraperitoneal) in B6D2F1 (BDF1) mice
Conditions: endpoint: mean survival time, higher = longer survival
Summary of the method: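 Transplanted-tumor mice were given test agent; controls received vehicle only. Survival readings from the two groups were divided (treated over control).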

[1] = dose: 50.0 mg/kg/injection, schedule: Q04DX002 (ip), vehicle: Klucel (hydroxypropylcellulose) (HPC)
[2] = dose: 100.0 mg/kg/injection, schedule: Q04DX002 (ip), vehicle: Klucel (hydroxypropylcellulose) (HPC)
[3] = dose: 200.0 mg/kg/injection, schedule: Q04DX002 (ip), vehicle: Klucel (hydroxypropylcellulose) (HPC)
[4] = dose: 100.0 mg/kg/injection, schedule: Q01DX001 (ip), vehicle: saline
[5] = dose: 100.0 mg/kg/injection, schedule: Q04DX003 (ip), vehicle: saline
[6] = dose: 100.0 mg/kg/injection, schedule: Q01DX009 (ip), vehicle: Klucel (hydroxypropylcellulose) (HPC)
[7] = dose: 200.0 mg/kg/injection, schedule: Q01DX009 (ip), vehicle: Klucel (hydroxypropylcellulose) (HPC)
[8] = dose: 400.0 mg/kg/injection, schedule: Q01DX009 (ip), vehicle: Klucel (hydroxypropylcellulose) (HPC)
[9] = dose: 200.0 mg/kg/injection, schedule: Q04DX003 (ip), vehicle: saline
[10] = dose: 400.0 mg/kg/injection, schedule: Q04DX003 (ip), vehicle: saline
[11] = dose: 100.0 mg/kg/injection, schedule: Q01DX009 (ip), vehicle: saline
[12] = dose: 200.0 mg/kg/injection, schedule: Q01DX009 (ip), vehicle: saline
[13] = dose: 100.0 mg/kg/injection, schedule: Q01DX001 (ip), vehicle: Klucel (hydroxypropylcellulose) (HPC)
[14] = dose: 100.0 mg/kg/injection, schedule: Q04DX003 (ip), vehicle: Klucel (hydroxypropylcellulose) (HPC)
[15] = dose: 200.0 mg/kg/injection, schedule: Q01DX001 (ip), vehicle: Klucel (hydroxypropylcellulose) (HPC)
[16] = dose: 200.0 mg/kg/injection, schedule: Q04DX003 (ip), vehicle: Klucel (hydroxypropylcellulose) (HPC)
[17] = dose: 400.0 mg/kg/injection, schedule: Q01DX001 (ip), vehicle: Klucel (hydroxypropylcellulose) (HPC)
[18] = dose: 400.0 mg/kg/injection, schedule: Q04DX003 (ip), vehicle: Klucel (hydroxypropylcellulose) (HPC)

Measured: T/C

Cn1cnc([N+](=O)[O-])c1/N=C/c1ccccc1
inactive: dose: 50.0 mg/kg/injection, schedule: Q01DX005 (ip), vehicle: saline 98 % of control | dose: 100.0 mg/kg/injection, schedule: Q01DX005 (ip), vehicle: saline 100 % of control | dose: 200.0 mg/kg/injection, schedule: Q01DX005 (ip), vehicle: saline 104 % of control

Cn1c(CCN=C(N)CSS(=O)(=O)O)nc2ccccc21
inactive: [1] 91 % of control | [2] 105 % of control | [3] 105 % of control and 112 % of control

NC(=O)N/N=C(/CBr)c1ccc(-c2ccccc2)cc1
inactive: dose: 25.0 mg/kg/injection, schedule: Q04DX003 (ip), vehicle: saline 101 % of control | dose: 50.0 mg/kg/injection, schedule: Q04DX003 (ip), vehicle: saline 95 % of control | [4] 96 % of control | [5] 91 % of control

COc1cc(Br)c(CC2c3cc(OC)c(OC)cc3CC[N+]2(C)C)cc1OC (stereo not given)
inactive: dose: 100.0 mg/kg/injection, schedule: Q01DX001 (ip), vehicle: water 100 % of control | dose: 100.0 mg/kg/injection, schedule: Q01DX009 (ip), vehicle: water 101 % of control | dose: 100.0 mg/kg/injection, schedule: Q04DX003 (ip), vehicle: water 100 % of control | dose: 200.0 mg/kg/injection, schedule: Q01DX001 (ip), vehicle: water 102 % of control | dose: 200.0 mg/kg/injection, schedule: Q01DX009 (ip), vehicle: water 87 % of control | dose: 200.0 mg/kg/injection, schedule: Q04DX003 (ip), vehicle: water 97 % of control | dose: 400.0 mg/kg/injection, schedule: Q01DX001 (ip), vehicle: water 100 % of control | dose: 400.0 mg/kg/injection, schedule: Q04DX003 (ip), vehicle: water 91 % of control

CCCCCCCCCCCCCCCCC1CCCC2(CCCC2)C1 (stereo not given)
inactive: dose: 100.0 mg/kg/injection, schedule: Q01DX001 (ip), vehicle: saline with Tween-80 103 % of control | dose: 200.0 mg/kg/injection, schedule: Q01DX001 (ip), vehicle: saline with Tween-80 92 % of control | dose: 400.0 mg/kg/injection, schedule: Q01DX001 (ip), vehicle: saline with Tween-80 101 % of control

Cc1cc(/C=N/NC(=O)c2ccccc2NC(=O)c2ccccc2Cl)ccc1O
inactive: [6] 88 % of control | [7] 92 % of control | [8] 86 % of control

N#CC(=N)N1CCCCC1
inactive: [5] 98 % of control | [9] 112 % of control | [10] 109 % of control

Cc1ccc(/C=C/C(=O)c2ccc(Cl)cc2)cc1
inactive: dose: 100.0 mg/kg/injection, schedule: Q01DX009 (ip), vehicle: saline with Tween-80 108 % of control | dose: 100.0 mg/kg/injection, schedule: Q04DX003 (ip), vehicle: saline with Tween-80 93 % of control | dose: 200.0 mg/kg/injection, schedule: Q01DX009 (ip), vehicle: saline with Tween-80 94 % of control | dose: 200.0 mg/kg/injection, schedule: Q04DX003 (ip), vehicle: saline with Tween-80 101 % of control | dose: 400.0 mg/kg/injection, schedule: Q01DX009 (ip), vehicle: saline with Tween-80 97 % of control | dose: 400.0 mg/kg/injection, schedule: Q04DX003 (ip), vehicle: saline with Tween-80 91 % of control

CNC(=O)Oc1ccc(Nc2ccccc2)cc1
inactive: [6] 97 % of control and 104 % of control | [2] 105 % of control and 88 % of control | [7] 100 % of control and 104 % of control | [3] 97 % of control and 98 % of control | [8] 95 % of control and 104 % of control | dose: 400.0 mg/kg/injection, schedule: Q04DX002 (ip), vehicle: Klucel (hydroxypropylcellulose) (HPC) 93 % of control and 108 % of control

Cc1cn2ccccc2c[n+]1=O
inactive: dose: 5.0 mg/kg/injection, schedule: Q01DX009 (ip), vehicle: saline sonified 98 % of control | dose: 10.0 mg/kg/injection, schedule: Q01DX009 (ip), vehicle: saline sonified 98 % of control | dose: 20.0 mg/kg/injection, schedule: Q01DX009 (ip), vehicle: saline sonified 87 % of control

C/C(=C/c1c(C)[nH]c(=O)[nH]c1=O)C(=O)O
inactive: [11] 92 % of control | [5] 98 % of control | [12] 95 % of control | [9] 104 % of control | [10] 106 % of control

CC12CCC3C(CC=C4CC(SC(=N)N)CCC43C)C1CCC2=O (stereo not given)
inactive: [13] 95 % of control | [14] 97 % of control | [15] 95 % of control | [16] 95 % of control | [17] 101 % of control | [18] 97 % of control

CSC(c1ccccc1F)=[N+]1CCCCC1
inactive: dose: 5.0 mg/kg/injection, schedule: Q01DX001 (ip), vehicle: saline 100 % of control | dose: 10.0 mg/kg/injection, schedule: Q01DX001 (ip), vehicle: saline 96 % of control | dose: 20.0 mg/kg/injection, schedule: Q01DX001 (ip), vehicle: saline 95 % of control

Nc1ccn(C2CCCO2)c(=O)n1 (stereo not given)
inactive: dose: 50.0 mg/kg/injection, schedule: Q01DX001 (ip), vehicle: saline 101 % of control | [4] 95 % of control | dose: 200.0 mg/kg/injection, schedule: Q01DX001 (ip), vehicle: saline 95 % of control | dose: 400.0 mg/kg/injection, schedule: Q01DX001 (ip), vehicle: saline 95 % of control

O=c1ccc2c(-c3ccccc3O)c3ccc(O)cc3oc-2c1
inactive: [14] 93 % of control | [16] 94 % of control | [18] 92 % of control

O=C(COc1ccc(Cl)cc1Cl)Nc1ccc(NC(=O)COc2ccc(Cl)cc2Cl)cc1
inactive: dose: 12.5 mg/kg/injection, schedule: Q01DX009 (ip), vehicle: Klucel (hydroxypropylcellulose) (HPC) 87 % of control | dose: 12.5 mg/kg/injection, schedule: Q04DX002 (ip), vehicle: Klucel (hydroxypropylcellulose) (HPC) 95 % of control | dose: 25.0 mg/kg/injection, schedule: Q01DX009 (ip), vehicle: Klucel (hydroxypropylcellulose) (HPC) 94 % of control | dose: 25.0 mg/kg/injection, schedule: Q04DX002 (ip), vehicle: Klucel (hydroxypropylcellulose) (HPC) 95 % of control | dose: 50.0 mg/kg/injection, schedule: Q01DX009 (ip), vehicle: Klucel (hydroxypropylcellulose) (HPC) 87 % of control | [1] 92 % of control

NC(N)=N/N=C/c1cccc(O)c1
inactive: dose: 63.0 mg/kg/injection, schedule: Q01DX Z (ip), vehicle: saline 112 % of control | dose: 125.0 mg/kg/injection, schedule: Q01DX Z (ip), vehicle: saline 102 % of control

O=C(C(Br)C(Br)c1ccccc1)N1CCOCC1 (stereo not given)
inactive: dose: 100.0 mg/kg/injection, schedule: Q01DX009 (ip), vehicle: saline sonified 108 % of control | [5] 109 % of control | dose: 200.0 mg/kg/injection, schedule: Q01DX009 (ip), vehicle: saline sonified 101 % of control | [9] 100 % of control | dose: 400.0 mg/kg/injection, schedule: Q01DX009 (ip), vehicle: saline sonified 95 % of control | [10] 98 % of control

CC1C(c2ccccc2)CC(c2ccccc2)OS1(=O)=O (stereo not given)
inactive: [13] 95 % of control | [14] 103 % of control | [15] 97 % of control | [16] 94 % of control | [17] 93 % of control | [18] 97 % of control

Cn1cnc2cc(Cl)ccc21
inactive: dose: 50.0 mg/kg/injection, schedule: Q01DX009 (ip), vehicle: saline 101 % of control | [11] 104 % of control | [12] 97 % of control

Cc1ncc(CO)c(/C=N\OCc2cc(Cl)sc2Cl)c1O
inactive: [14] 93 % of control | [16] 93 % of control | [18] 104 % of control

CCCCC(O)(C(C)C)C(C)C
inactive: dose: 100.0 mg/kg/injection, schedule: Q01DX001 (ip), vehicle: carboxymethylcellulose (CMC) 102 % of control | dose: 200.0 mg/kg/injection, schedule: Q01DX001 (ip), vehicle: carboxymethylcellulose (CMC) 98 % of control | dose: 400.0 mg/kg/injection, schedule: Q01DX001 (ip), vehicle: carboxymethylcellulose (CMC) 98 % of control

Cc1c(C)c2c(c(C)c1O)SC(CC(=O)O)C(=O)O2 (stereo not given)
inactive: [14] 100 % of control | [16] 100 % of control | [18] 100 % of control
